In ChEMBL document CHEMBL1667853, “Design and synthesis of potent Gram-negative specific LpxC inhibitors” (Bioorg Med Chem Lett, 2011):
Values after ≈ are worked out from the molar mass of the structure shown.

Experiments:
[1] = target: T1, UDP-3-O-acyl-N-acetylglucosamine deacetylase (Escherichia coli K-12, UniProt P0A725); assay: Inhibition of Escherichia coli LpxC
T1 sequence (P0A725 whole entry): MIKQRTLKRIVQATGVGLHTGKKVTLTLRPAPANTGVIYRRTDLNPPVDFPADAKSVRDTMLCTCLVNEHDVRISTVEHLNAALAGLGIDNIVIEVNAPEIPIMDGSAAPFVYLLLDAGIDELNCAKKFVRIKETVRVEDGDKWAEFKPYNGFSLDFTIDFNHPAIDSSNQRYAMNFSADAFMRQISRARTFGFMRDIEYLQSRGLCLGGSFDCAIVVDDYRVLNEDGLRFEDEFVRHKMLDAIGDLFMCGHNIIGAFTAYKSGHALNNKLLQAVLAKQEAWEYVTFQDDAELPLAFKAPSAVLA

Escherichia coli [2] = assay: Antimicrobial activity against Escherichia coli HS294 by broth dilution assay; format: functional
Escherichia coli [3] = assay: Antimicrobial activity against Escherichia coli ATCC 25922 by broth dilution assay; format: functional
Escherichia coli [4] = assay: Antimicrobial activity against wild type Escherichia coli by broth dilution assay; format: functional
Escherichia coli [5] = assay: Antimicrobial activity against multidrug-resistant Escherichia coli by broth dilution assay; format: functional
Escherichia coli [6] = assay: Antimicrobial activity against ESBL producing Escherichia coli by broth dilution assay; format: functional
Pseudomonas aeruginosa [7] = assay: Antimicrobial activity against wild type Pseudomonas aeruginosa by broth dilution assay; format: functional
Pseudomonas aeruginosa [8] = assay: Antimicrobial activity against multidrug-resistant Pseudomonas aeruginosa by broth dilution assay; format: functional
Klebsiella pneumoniae [9] = assay: Antimicrobial activity against wild type Klebsiella pneumoniae by broth dilution assay; format: functional
Klebsiella pneumoniae [10] = assay: Antimicrobial activity against ESBL producing Klebsiella pneumoniae by broth dilution assay; format: functional
Proteus vulgaris = assay: Antimicrobial activity against wild type Proteus vulgaris by broth dilution assay; format: functional
Serratia marcescens = assay: Antimicrobial activity against wild type Serratia marcescens by broth dilution assay; format: functional
Klebsiella aerogenes = assay: Antimicrobial activity against wild type Enterobacter aerogenes by broth dilution assay; format: functional
Enterobacter cloacae = assay: Antimicrobial activity against ESBL producing Enterobacter cloacae by broth dilution assay; format: functional
[11] = test system: Acinetobacter calcoaceticus; assay: Antimicrobial activity against wild type Acinetobacter calcoaceticus by broth dilution assay; format: functional
Acinetobacter baumannii = assay: Antimicrobial activity against wild type Acinetobacter baumannii by broth dilution assay; format: functional
[12] = test system: Stenotrophomonas maltophilia; assay: Antimicrobial activity against wild type Stenotrophomonas maltophilia by broth dilution assay; format: functional

Row | Compound | IC50 [1] | MIC (Escherichia coli [2]) | MIC (Escherichia coli [3]) | other results
1 | C[C@@H](O)[C@H](C(=O)NO)N1Cc2cc(C#Cc3ccccc3)ccc2C1=O | 130 nM |  |  | 
2 | C[C@@H](O)[C@@H](NC(=O)N1CCN(c2ccc(C#Cc3ccncc3)cc2)CC1)C(=O)NO | 4 nM | 0.8 µg/mL (≈ 1.89 µM) | 3.13 µg/mL (≈ 7.39 µM) | 
3 | C[C@@H](O)[C@@H](NC(=O)N1CCC(c2ccc(C#Cc3ccccc3)cc2)C1)C(=O)NO (stereo partly drawn) | 36 nM | 12.5 µg/mL (≈ 30.7 µM) | 100 µg/mL (≈ 245 µM) | 
4 | C[C@@H](O)[C@H](C(=O)NO)N1Cc2cc(-c3ccc(-c4ccccc4)cc3)ccc2C1=O | 50 nM |  |  | 
5 | C[C@@H](O)[C@H](C(=O)NO)n1[nH]c2cc(C#Cc3ccccc3)ccc2c1=O | 200 nM |  |  | 
6 | CC(C)(O)[C@@H](NC(=O)N1CCN(c2ccc(C#Cc3ccccc3)cc2)CC1)C(=O)NO | 0.3 nM | 0.1 µg/mL (≈ 0.229 µM) | 0.8 µg/mL (≈ 1.83 µM) | MIC (Escherichia coli [4]): 0.8 µg/mL (≈ 1.83 µM); MIC (Escherichia coli [5]): 1.56 µg/mL (≈ 3.57 µM); MIC (Escherichia coli [6]): 1.56 µg/mL (≈ 3.57 µM); MIC (Pseudomonas aeruginosa [7]): > 50 µg/mL; MIC (Pseudomonas aeruginosa [8]): 6.25 µg/mL (≈ 14.3 µM); MIC (Klebsiella pneumoniae [9]): 12.5 µg/mL (≈ 28.6 µM); MIC (Klebsiella pneumoniae [10]): 6.25 µg/mL (≈ 14.3 µM); MIC (Proteus vulgaris): 3.13 µg/mL (≈ 7.17 µM); MIC (Serratia marcescens): 6.25 µg/mL (≈ 14.3 µM); MIC (Klebsiella aerogenes): 12.5 µg/mL (≈ 28.6 µM); MIC (Enterobacter cloacae): 6.25 µg/mL (≈ 14.3 µM); MIC [11]: 25 µg/mL (≈ 57.3 µM); MIC (Acinetobacter baumannii): > 50 µg/mL; MIC [12]: 25 µg/mL (≈ 57.3 µM)
7 | C[C@@H](O)[C@H](C(=O)NO)N1Cc2cc(C#Cc3cccc(-c4ccccc4)c3)ccc2C1=O | 971 nM |  |  | 
8 | C[C@@H](O)[C@@H](NC(=O)N1CCN(c2ccc(C#Cc3cccs3)cc2)CC1)C(=O)NO | 21 nM | 1.56 µg/mL (≈ 3.64 µM) | 25 µg/mL (≈ 58.3 µM) | 
9 | C[C@@H](O)[C@H](C(=O)NO)N1Cc2cc(Br)ccc2C1=O | > 61000 nM |  |  | 
10 | C[C@@H](N)[C@@H](NC(=O)N1CCN(c2ccc(C#Cc3ccccc3)cc2)CC1)C(=O)NO | 0.6 nM | 0.4 µg/mL (≈ 0.949 µM) | 1.56 µg/mL (≈ 3.7 µM) | MIC (Escherichia coli [4]): 1.56 µg/mL (≈ 3.7 µM); MIC (Escherichia coli [5]): 3.13 µg/mL (≈ 7.43 µM); MIC (Escherichia coli [6]): 1.56 µg/mL (≈ 3.7 µM); MIC (Pseudomonas aeruginosa [7]): 12.5 µg/mL (≈ 29.7 µM); MIC (Pseudomonas aeruginosa [8]): 3.13 µg/mL (≈ 7.43 µM); MIC (Klebsiella pneumoniae [9]): 25 µg/mL (≈ 59.3 µM); MIC (Klebsiella pneumoniae [10]): 12.5 µg/mL (≈ 29.7 µM); MIC (Proteus vulgaris): 6.25 µg/mL (≈ 14.8 µM); MIC (Serratia marcescens): 12.5 µg/mL (≈ 29.7 µM); MIC (Klebsiella aerogenes): 25 µg/mL (≈ 59.3 µM); MIC (Enterobacter cloacae): 3.13 µg/mL (≈ 7.43 µM); MIC [11]: 25 µg/mL (≈ 59.3 µM); MIC (Acinetobacter baumannii): 25 µg/mL (≈ 59.3 µM); MIC [12]: > 50 µg/mL
11 | C[C@@H](O)[C@@H](NC(=O)N1CCN(c2ccc(C#Cc3ccc(N4CCOCC4)cc3)cc2)CC1)C(=O)NO | 3 nM | 0.1 µg/mL (≈ 0.197 µM) | 25 µg/mL (≈ 49.3 µM) | 
12 | C[C@@H](O)[C@@H](NC(=O)NCc1ccc(C#Cc2ccccc2)cc1)C(=O)NO | 201 nM | 12.5 µg/mL (≈ 34 µM) | > 100 µg/mL | 
13 | CC(C)(O)[C@@H](NC(=O)N1CCN(c2ccc(-c3ccccc3)cc2)CC1)C(=O)NO | 7 nM | 0.8 µg/mL (≈ 1.94 µM) | 3.13 µg/mL (≈ 7.59 µM) | 
14 | CN(C)[C@@H]1C(O)=C(C(N)=O)C(=O)[C@@]2(O)C(O)=C3C(=O)c4c(O)cccc4[C@@](C)(O)[C@H]3C[C@@H]12 [TETRACYCLINE] |  |  |  | MIC (Escherichia coli [4]): 1 µg/mL (≈ 2.25 µM); MIC (Escherichia coli [5]): > 2 µg/mL; MIC (Pseudomonas aeruginosa [7]): 1 µg/mL (≈ 2.25 µM); MIC (Pseudomonas aeruginosa [8]): 16 µg/mL (≈ 36 µM)
15 | CC1(C)S[C@@H]2[C@H](NC(=O)[C@H](N)c3ccccc3)C(=O)N2[C@H]1C(=O)O [AMPICILLIN] |  |  |  | MIC (Escherichia coli [4]): 4 µg/mL (≈ 11.4 µM); MIC (Escherichia coli [5]): > 8 µg/mL; MIC (Escherichia coli [6]): > 32 µg/mL; MIC (Pseudomonas aeruginosa [7]): 4 µg/mL (≈ 11.4 µM); MIC (Pseudomonas aeruginosa [8]): > 256 µg/mL; MIC (Klebsiella pneumoniae [9]): > 32 µg/mL; MIC (Klebsiella pneumoniae [10]): > 32 µg/mL; MIC (Enterobacter cloacae): > 32 µg/mL; MIC [12]: > 32 µg/mL
16 | C[C@@H](O)[C@@H](NC(=O)N1CCN(c2ccc(C#Cc3ccccc3)cc2)CC1)C(=O)NO | 2.4 nM | 0.2 µg/mL (≈ 0.473 µM) | 1.56 µg/mL (≈ 3.69 µM) | 
17 | C[C@@H](O)[C@@H](NC(=O)N1CCN(c2ccc(C#Cc3cnccn3)cc2)CC1)C(=O)NO | 136 nM | 6.25 µg/mL (≈ 14.7 µM) | > 100 µg/mL | 
18 | CC[C@H]1OC(=O)[C@H](C)[C@@H](O[C@H]2C[C@@](C)(OC)[C@@H](O)[C@H](C)O2)[C@H](C)[C@@H](O[C@@H]2O[C@H](C)C[C@H](N(C)C)[C@H]2O)[C@](C)(O)C[C@@H](C)CN(C)[C@H](C)[C@@H](O)[C@]1(C)O [AZITHROMYCIN] |  |  |  | MIC (Escherichia coli [5]): 32 µg/mL (≈ 42.7 µM); MIC (Pseudomonas aeruginosa [7]): 4 µg/mL (≈ 5.34 µM); MIC (Pseudomonas aeruginosa [8]): 32 µg/mL (≈ 42.7 µM)
19 | C[C@@H](O)[C@@H](NC(=O)N1CCN(c2ccc(C#Cc3ccc(CO)cc3)cc2)CC1)C(=O)NO | 12 nM | 0.4 µg/mL (≈ 0.884 µM) | 12.5 µg/mL (≈ 27.6 µM) | 
20 | CC(C)(O)[C@@H](NC(=O)N1CCC(c2ccc(-c3ccccc3)cc2)CC1)C(=O)NO | 2.5 nM | 0.2 µg/mL (≈ 0.486 µM) | 0.8 µg/mL (≈ 1.94 µM) | 
21 | C[C@@H](O)[C@@H](NC(=O)N1CCC(c2ccc(C#Cc3ccccc3)cc2)CC1)C(=O)NO |  | 0.8 µg/mL (≈ 1.9 µM) | 12.5 µg/mL (≈ 29.7 µM) | 
22 | O=C(O)c1cn(C2CC2)c2cc(N3CCNCC3)c(F)cc2c1=O [CIPROFLOXACIN] |  |  |  | MIC (Escherichia coli [5]): > 32 µg/mL; MIC (Pseudomonas aeruginosa [7]): 0.012 µg/mL (≈ 0.0362 µM); MIC (Pseudomonas aeruginosa [8]): > 8 µg/mL; MIC (Klebsiella pneumoniae [9]): 1 µg/mL (≈ 3.02 µM); MIC [12]: 0.016 µg/mL (≈ 0.0483 µM)
23 | C[C@@H](O)[C@@H](NC(=O)N1CCN(c2ccc(C#Cc3ccc(Cl)cc3)cc2)CC1)C(=O)NO | 5 nM | 1.56 µg/mL (≈ 3.41 µM) | 6.25 µg/mL (≈ 13.7 µM) | 
24 | NC[C@@H](NC(=O)N1CCC(c2ccc(C#Cc3ccccc3)cc2)CC1)C(=O)NO | 163 nM | 6.25 µg/mL (≈ 15.4 µM) | 12.5 µg/mL (≈ 30.8 µM) | 
